Experimental data published in US20120283303A1, “USE OF N-AMINOIMIDAZOLE CYTOPROTECTIVE COMPOUNDS FOR TREATING CELL DEATH AND/OR GSK-3 MEDIATED DISEASES” (K.U.LEUVEN RESEARCH AND DEVELOPMENT, priority 2006, published 2012).
Values after ≈ are worked out from the molar mass of the structure shown.

What was measured:
M17-TAU P301L cells = assay: TAU cytotoxicity (LDH leakage) in retinoic acid incubated M17-TAU P301L cells; assay type: cell-based, human; conditions: Homo sapiens, 168 h, reduction of LDH activity of retinoic acid incubated M17-TAU P301L cells, 7 days; read-out: IC50
Excerpt: An TAU expression plasmid was constructed by sub-cloning the cDNA of human TAU-P301L (encoding for TAU with proline 301 substituted by a leucine residue) into mammalian expression vector pcDNA3.1 resulting in plasmid pcDNA3.1-TAU P301L. Plasmids pcDNA3.1 and pcDNA3.1-TAU P301L were transfected to human neuroblastoma cells ([…]; ATCC No. CRL-2267) and independent clonal lines with the plasmids stably integrated into the genome were selected. […] Expression of the TAU P301L genes in the cell lines was confirmed by Western analysis.
In degenerated or dead cells, lactate dehydrogenase (LDH) is leaked out of the cells into the extracellular environment due to a loss of plasma-membrane integrity. This principle was used to determine cytotoxicity by quantifying the level of leaked LDH into the growth medium.
The detailed method for determining TAU cytotoxicity was as follows: From appropriate precultures of M17-3.1 and M17-TAU(P301L) cells were seeded at 2500 cells/cm2 in Optimem Reduced Serum without phenol red (Gibco, Cat. 31985-047) supplemented with 1% fetal calf serum, 1 mM sodium pyruvate, 1× non-essential amino acids, 500 μg/ml G418 0.5× antibiotic/antimycotic. After 3 hours of incubation at 37° C./5% CO2 1 volume of Optimem Reduced Serum (same as described above; except without fetal calf serum) supplemented with 2.5 μM retinoic acid (RA) was added. The cells were further incubated for 7 days. Subsequently, LDH activity was determined using Promega Cytotox 96 Non-Radioactive cytotoxicity assay, (Cat. G1780) according the supplier's instructions.
The M17-TAU P301L cell line made it possible to assess the ability of the compounds of this invention to counteract TAU cytotoxicity. […] Potency of the relevant compounds was determined by testing them at different concentrations ranging from non-effective (thus at a relatively low concentration) to an effective concentration for their ability to reduce LDH activity of retinoic acid incubated M17-TAU P301L cells.

CK2 = biological target: T1, CK2 (Homo sapiens, UniProt P68400); assay: Radiometric kinase activity assay; assay type: biochemical; conditions: 5 μg/ml NR-818, 10 μM ATP
T1 construct: purchased Upstate Biotechnology
Experimental: (§1) GSK-3 were assayed for their ability to phosphorylate the appropriate peptide/protein substrate in the presence of 5 μg/ml NR-818 and 10 μM ATP. Using the direct radiometric approach, kinase activities were determined and expressed as % activity compared to the untreated control (Upstate Biotechnology, Lake Placid, N.Y.). Activities are given as the mean of duplicate determinations relative to control incubations in which the inhibitor was substituted with DMSO. In the following table 1 providing results for NR818, the following abbreviations are used: • CDK, cyclin-dependent kinase; • CK, casein kinase; • eEF-2K, eukaryotic elongation factor-2 kinase; • JNK, c-Jun N-terminal kinase; • MAPK, mitogen-activated protein kinase; • PKC, protein kinase C; and • PI 3-kinase, phosphatidylinositol 3-kinase.

eEF-2K = biological target: T2, eEF-2K (Homo sapiens, UniProt O00418); assay: Radiometric kinase activity assay; assay type: biochemical; conditions: 5 μg/ml NR-818, 10 μM ATP
T2 construct: purchased Upstate Biotechnology
Experimental: as §1

PI 3-kinaseδ = biological target: T3, PI 3-kinaseδ (Homo sapiens, UniProt O00329); assay: Radiometric kinase activity assay; assay type: biochemical; conditions: 5 μg/ml NR-818, 10 μM ATP
T3 construct: purchased Upstate Biotechnology, Lake Placid, N.Y
Experimental: as §1

CDK2/cyclinE = biological target: T4, CDK2/cyclinE (Homo sapiens, UniProt P24941); assay: Radiometric kinase activity assay; assay type: biochemical; conditions: 5 μg/ml NR-818, 10 μM ATP
T4 construct: purchased Upstate Biotechnology
Experimental: as §1

CK1 = assay: Radiometric kinase activity assay; assay type: biochemical; conditions: 5 μg/ml NR-818, 10 μM ATP
Experimental: as §1

CDK9/cyclinT1 = biological target: T5, CDK9/cyclinT1 (Homo sapiens, UniProt P50750); assay: Radiometric kinase activity assay; assay type: biochemical; conditions: 5 μg/ml NR-818, 10 μM ATP
T5 construct: purchased Upstate Biotechnology
Experimental: as §1

JNK2α2 = biological target: T6, JNK2α2 (Homo sapiens, UniProt P45984); assay: Radiometric kinase activity assay; assay type: biochemical; conditions: 5 μg/ml NR-818, 10 μM ATP
T6 construct: purchased Upstate Biotechnology
Experimental: as §1

PI 3-kinaseγ = biological target: T7, PI 3-kinaseγ (Homo sapiens, UniProt P48736); assay: Radiometric kinase activity assay; assay type: biochemical; conditions: 5 μg/ml NR-818, 10 μM ATP
T7 construct: purchased Upstate Biotechnology
Experimental: as §1

MAPK2 = biological target: T8, MAPK2 (Homo sapiens, UniProt P28482); assay: Radiometric kinase activity assay; assay type: biochemical; conditions: 5 μg/ml NR-818, 10 μM ATP
T8 construct: purchased Upstate Biotechnology
Experimental: as §1

CDK6/cyclinD3 = biological target: T9, CDK6/cyclinD3 (Homo sapiens, UniProt Q00534); assay: Radiometric kinase activity assay; assay type: biochemical; conditions: 5 μg/ml NR-818, 10 μM ATP
T9 construct: purchased Upstate Biotechnology
Experimental: as §1

CDK7/cyclinH = biological target: T10, CDK7/cyclinH (Homo sapiens, UniProt P50613); assay: Radiometric kinase activity assay; assay type: biochemical; conditions: 5 μg/ml NR-818, 10 μM ATP
T10 construct: purchased Upstate Biotechnology
Experimental: as §1

JNK1α1 = biological target: T11, JNK1α1 (Homo sapiens, UniProt P45983); assay: Radiometric kinase activity assay; assay type: biochemical; conditions: 5 μg/ml NR-818, 10 μM ATP
T11 construct: purchased Upstate Biotechnology
Experimental: as §1

PI 3-kinaseβ = biological target: T12, PI 3-kinaseβ (Homo sapiens, UniProt P42338); assay: Radiometric kinase activity assay; assay type: biochemical; conditions: 5 μg/ml NR-818, 10 μM ATP
T12 construct: purchased Upstate Biotechnology
Experimental: as §1

CDK1/cyclinB = biological target: T13, CDK1/cyclinB (Homo sapiens, UniProt P06493); assay: Radiometric kinase activity assay; assay type: biochemical; conditions: 5 μg/ml NR-818, 10 μM ATP
T13 construct: purchased Upstate Biotechnology
Experimental: as §1

CDK5/p25 = biological target: T14, CDK5/p25 (Homo sapiens, UniProt Q00535); assay: Radiometric kinase activity assay; assay type: biochemical; conditions: 5 μg/ml NR-818, 10 μM ATP
T14 construct: purchased Upstate Biotechnology
Experimental: as §1

CDK5/p35 = biological target: T15, CDK5/p35 (Homo sapiens, UniProt Q00535); assay: Radiometric kinase activity assay; assay type: biochemical; conditions: 5 μg/ml NR-818, 10 μM ATP
T15 construct: purchased Upstate Biotechnology
Experimental: as §1

CDK3/cyclinE = biological target: T16, CDK3/cyclinE (Homo sapiens, UniProt Q00526); assay: Radiometric kinase activity assay; assay type: biochemical; conditions: 5 μg/ml NR-818, 10 μM ATP
T16 construct: purchased Upstate Biotechnology
Experimental: as §1

CDK2/cyclinA = biological target: T17, CDK2/cyclinA (Homo sapiens, UniProt P24941); assay: Radiometric kinase activity assay; assay type: biochemical; conditions: 5 μg/ml NR-818, 10 μM ATP
T17 construct: purchased Upstate Biotechnology
Experimental: as §1

PKCζ = biological target: T18, PKCζ (Homo sapiens, UniProt Q05513); assay: Radiometric kinase activity assay; assay type: biochemical; conditions: 5 μg/ml NR-818, 10 μM ATP
T18 construct: purchased Upstate Biotechnology
Experimental: as §1

MAPK1 = biological target: T19, MAPK1 (Homo sapiens, UniProt P27361); assay: Radiometric kinase activity assay; assay type: biochemical; conditions: 5 μg/ml NR-818, 10 μM ATP
T19 construct: purchased Upstate Biotechnology
Experimental: as §1

[1] = Diabetic mouse glucose tolerance test; assay type: in vivo, mice; conditions: subcutaneously, 30 mg/kg
Excerpt: NR818 is formulated and tested in the diabetic mouse glucose tolerance test as described in example 269 of U.S. Pat. No. 6,489,344.

P/CAF (H4 peptide) = biological target: T20, P/CAF (H4 peptide) (Homo sapiens, UniProt Q92831); assay: Radiometric enzyme activity assay, P/CAF (H4 peptide); assay type: biochemical; conditions: 5 μg/ml NR-818, 10 μM ATP
T20 construct: purchased Upstate Biotechnology
Experimental: as §1

T6 sequence (P45984 whole entry): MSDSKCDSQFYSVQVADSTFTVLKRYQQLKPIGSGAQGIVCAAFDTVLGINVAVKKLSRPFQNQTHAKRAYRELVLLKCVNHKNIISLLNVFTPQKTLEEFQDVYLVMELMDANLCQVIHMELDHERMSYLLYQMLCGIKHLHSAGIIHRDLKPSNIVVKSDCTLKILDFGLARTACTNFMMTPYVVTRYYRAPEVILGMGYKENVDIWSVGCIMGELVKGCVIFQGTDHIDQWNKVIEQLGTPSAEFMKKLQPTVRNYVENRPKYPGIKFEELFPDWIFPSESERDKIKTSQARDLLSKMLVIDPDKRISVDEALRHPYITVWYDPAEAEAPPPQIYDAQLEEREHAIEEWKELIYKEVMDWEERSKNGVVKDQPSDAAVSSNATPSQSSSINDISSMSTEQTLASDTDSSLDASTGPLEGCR
T9 sequence (Q00534 whole entry): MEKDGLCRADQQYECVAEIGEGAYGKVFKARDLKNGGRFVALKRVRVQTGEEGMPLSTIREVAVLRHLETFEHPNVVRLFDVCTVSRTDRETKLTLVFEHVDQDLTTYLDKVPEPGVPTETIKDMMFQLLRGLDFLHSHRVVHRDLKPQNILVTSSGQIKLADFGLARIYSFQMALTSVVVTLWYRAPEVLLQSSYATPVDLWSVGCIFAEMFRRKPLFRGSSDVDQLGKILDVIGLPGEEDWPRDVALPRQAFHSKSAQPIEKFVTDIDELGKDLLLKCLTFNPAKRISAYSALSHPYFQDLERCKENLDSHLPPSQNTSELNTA
T9 sequence (P30281 whole entry partner): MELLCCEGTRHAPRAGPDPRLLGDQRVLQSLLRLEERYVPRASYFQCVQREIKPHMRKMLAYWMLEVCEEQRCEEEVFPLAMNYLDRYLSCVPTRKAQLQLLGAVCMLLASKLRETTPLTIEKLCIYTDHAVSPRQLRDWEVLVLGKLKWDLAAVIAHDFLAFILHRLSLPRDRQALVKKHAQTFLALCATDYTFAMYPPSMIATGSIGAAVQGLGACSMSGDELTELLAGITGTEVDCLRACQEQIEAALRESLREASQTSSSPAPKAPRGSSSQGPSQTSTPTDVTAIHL
T12 sequence (P42338 whole entry): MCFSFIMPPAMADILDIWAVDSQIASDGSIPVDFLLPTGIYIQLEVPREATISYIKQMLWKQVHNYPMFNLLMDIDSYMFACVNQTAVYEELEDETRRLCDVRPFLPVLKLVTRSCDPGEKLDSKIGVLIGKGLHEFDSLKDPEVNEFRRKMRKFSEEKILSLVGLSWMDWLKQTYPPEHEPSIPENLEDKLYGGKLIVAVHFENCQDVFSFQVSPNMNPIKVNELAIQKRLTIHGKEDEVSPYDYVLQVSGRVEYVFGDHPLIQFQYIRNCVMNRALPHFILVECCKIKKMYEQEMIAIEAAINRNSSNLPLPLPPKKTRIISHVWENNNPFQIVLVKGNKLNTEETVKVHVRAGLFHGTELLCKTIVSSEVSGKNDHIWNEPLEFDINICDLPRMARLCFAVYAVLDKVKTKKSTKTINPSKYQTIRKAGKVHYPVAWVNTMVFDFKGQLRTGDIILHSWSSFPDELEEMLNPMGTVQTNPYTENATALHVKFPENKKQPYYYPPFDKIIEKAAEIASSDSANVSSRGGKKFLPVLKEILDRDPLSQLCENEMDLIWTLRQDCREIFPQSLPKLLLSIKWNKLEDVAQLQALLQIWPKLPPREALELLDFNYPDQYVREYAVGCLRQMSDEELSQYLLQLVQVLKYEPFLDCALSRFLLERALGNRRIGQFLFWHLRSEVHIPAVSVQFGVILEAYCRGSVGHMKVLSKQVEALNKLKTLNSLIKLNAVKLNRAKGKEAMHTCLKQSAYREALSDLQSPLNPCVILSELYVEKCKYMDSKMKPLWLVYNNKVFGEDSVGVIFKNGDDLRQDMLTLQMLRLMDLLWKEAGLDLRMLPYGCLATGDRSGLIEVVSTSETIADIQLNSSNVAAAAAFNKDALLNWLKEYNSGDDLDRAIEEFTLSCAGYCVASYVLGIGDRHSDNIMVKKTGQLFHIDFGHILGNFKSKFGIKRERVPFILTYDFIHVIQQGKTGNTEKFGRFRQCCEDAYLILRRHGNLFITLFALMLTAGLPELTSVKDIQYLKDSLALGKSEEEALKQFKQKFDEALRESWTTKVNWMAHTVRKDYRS
T12 sequence (P27986 whole entry partner): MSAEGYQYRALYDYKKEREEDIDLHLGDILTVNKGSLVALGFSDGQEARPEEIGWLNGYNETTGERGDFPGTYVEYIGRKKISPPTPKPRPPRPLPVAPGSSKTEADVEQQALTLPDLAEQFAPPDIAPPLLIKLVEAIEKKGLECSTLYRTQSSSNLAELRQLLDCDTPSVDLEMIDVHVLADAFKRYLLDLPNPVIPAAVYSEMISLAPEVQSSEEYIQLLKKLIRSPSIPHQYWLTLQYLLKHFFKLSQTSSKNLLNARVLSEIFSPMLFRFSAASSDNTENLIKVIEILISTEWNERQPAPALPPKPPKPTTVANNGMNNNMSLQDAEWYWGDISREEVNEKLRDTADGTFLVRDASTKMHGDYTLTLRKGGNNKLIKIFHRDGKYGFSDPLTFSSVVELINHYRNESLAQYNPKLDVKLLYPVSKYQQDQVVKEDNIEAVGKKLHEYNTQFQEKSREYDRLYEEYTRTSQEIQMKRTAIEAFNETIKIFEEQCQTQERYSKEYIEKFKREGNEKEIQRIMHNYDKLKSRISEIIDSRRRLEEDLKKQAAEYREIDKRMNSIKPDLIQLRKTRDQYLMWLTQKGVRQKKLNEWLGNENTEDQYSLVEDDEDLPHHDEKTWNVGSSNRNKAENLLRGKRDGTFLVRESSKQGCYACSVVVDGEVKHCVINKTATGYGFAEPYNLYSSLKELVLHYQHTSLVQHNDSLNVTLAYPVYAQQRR
T18 sequence (Q05513 whole entry): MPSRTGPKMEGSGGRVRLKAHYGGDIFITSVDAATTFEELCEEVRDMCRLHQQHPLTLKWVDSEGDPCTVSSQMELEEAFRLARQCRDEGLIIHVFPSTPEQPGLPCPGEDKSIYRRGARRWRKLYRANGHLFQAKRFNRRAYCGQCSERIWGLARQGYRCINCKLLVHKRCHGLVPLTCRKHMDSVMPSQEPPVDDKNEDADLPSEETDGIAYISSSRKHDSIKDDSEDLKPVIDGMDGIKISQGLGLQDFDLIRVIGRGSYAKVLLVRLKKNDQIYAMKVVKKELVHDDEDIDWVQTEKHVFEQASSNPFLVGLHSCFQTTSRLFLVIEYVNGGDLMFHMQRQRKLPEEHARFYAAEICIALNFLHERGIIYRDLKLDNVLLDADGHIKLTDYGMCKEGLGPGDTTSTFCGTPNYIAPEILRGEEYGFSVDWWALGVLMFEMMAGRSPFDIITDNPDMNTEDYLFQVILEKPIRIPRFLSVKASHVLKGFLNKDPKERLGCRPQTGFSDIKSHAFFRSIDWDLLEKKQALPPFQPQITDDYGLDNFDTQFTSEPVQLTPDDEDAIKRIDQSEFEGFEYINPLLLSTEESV
T8 sequence (P28482 whole entry): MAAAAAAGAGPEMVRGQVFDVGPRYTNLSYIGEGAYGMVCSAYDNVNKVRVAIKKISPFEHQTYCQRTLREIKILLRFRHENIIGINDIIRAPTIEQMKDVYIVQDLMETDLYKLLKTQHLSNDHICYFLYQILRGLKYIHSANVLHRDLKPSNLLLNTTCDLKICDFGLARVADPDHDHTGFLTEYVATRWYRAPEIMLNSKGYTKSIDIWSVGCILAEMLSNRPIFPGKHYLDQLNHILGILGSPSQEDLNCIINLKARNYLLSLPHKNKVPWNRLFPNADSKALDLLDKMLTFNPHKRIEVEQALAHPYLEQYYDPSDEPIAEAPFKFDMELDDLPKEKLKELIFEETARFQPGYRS
T20 sequence (Q92831 whole entry): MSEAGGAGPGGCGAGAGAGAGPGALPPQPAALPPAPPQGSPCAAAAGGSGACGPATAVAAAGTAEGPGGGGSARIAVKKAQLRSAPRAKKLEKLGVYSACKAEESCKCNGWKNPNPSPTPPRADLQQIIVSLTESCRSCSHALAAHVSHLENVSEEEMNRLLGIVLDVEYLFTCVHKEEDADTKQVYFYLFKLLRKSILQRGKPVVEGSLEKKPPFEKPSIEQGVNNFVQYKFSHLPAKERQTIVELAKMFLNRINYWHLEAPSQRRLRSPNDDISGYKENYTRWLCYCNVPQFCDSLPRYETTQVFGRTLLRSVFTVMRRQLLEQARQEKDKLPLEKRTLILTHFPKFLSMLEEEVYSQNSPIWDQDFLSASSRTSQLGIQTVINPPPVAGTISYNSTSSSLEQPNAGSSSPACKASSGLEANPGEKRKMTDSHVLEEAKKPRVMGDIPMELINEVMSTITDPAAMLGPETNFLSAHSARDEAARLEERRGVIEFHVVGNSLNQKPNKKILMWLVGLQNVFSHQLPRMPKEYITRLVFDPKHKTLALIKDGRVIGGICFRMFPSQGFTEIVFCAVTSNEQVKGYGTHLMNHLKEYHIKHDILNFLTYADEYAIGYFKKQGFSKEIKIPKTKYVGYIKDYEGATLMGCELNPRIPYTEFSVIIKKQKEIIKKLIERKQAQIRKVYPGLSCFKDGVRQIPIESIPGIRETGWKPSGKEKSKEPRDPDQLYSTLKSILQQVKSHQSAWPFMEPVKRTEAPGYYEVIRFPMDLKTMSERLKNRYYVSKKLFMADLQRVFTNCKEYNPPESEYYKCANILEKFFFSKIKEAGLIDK
T19 sequence (P27361 whole entry): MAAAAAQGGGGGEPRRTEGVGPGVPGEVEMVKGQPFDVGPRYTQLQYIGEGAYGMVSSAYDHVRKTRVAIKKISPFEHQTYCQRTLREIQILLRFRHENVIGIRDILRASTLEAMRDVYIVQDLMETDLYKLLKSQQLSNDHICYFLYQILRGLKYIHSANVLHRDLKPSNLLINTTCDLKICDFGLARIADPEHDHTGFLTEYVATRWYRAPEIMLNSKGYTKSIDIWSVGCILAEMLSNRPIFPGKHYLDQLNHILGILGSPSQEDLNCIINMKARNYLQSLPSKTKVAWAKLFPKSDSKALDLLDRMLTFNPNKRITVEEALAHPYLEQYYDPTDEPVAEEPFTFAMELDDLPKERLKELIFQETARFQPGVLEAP

Cc1nc(S)n(Nc2cccc3ccccc23)c1-c1ccccc1 [HER/NR818, 4-Methyl-1-(naphthalen-1-ylamino)-5-phenyl-1,3-dihydro-imidazole-2-thione]
IC50 (M17-TAU P301L cells): 0.013 µg/mL (≈ 0.0392 µM) | Activity (% of control) (CK2): 99 % of control | Activity (% of control) (eEF-2K): 101 % of control | Activity (% of control) (PI 3-kinaseδ): 89 % of control | Activity (% of control) (CDK2/cyclinE): 101 % of control | Activity (% of control) (CK1): 106 % of control | Activity (% of control) (CDK9/cyclinT1): 100 % of control | Activity (% of control) (JNK2α2): 100 % of control | Activity (% of control) (PI 3-kinaseγ): 96 % of control | Activity (% of control) (MAPK2): 105 % of control | Activity (% of control) (CDK6/cyclinD3): 112 % of control | Activity (% of control) (CDK7/cyclinH): 100 % of control | Activity (% of control) (JNK1α1): 114 % of control | Activity (% of control) (PI 3-kinaseβ): 81 % of control | Activity (% of control) (CDK1/cyclinB): 88 % of control | Activity (% of control) (CDK5/p25): 98 % of control | Activity (% of control) (CDK5/p35): 92 % of control | Activity (% of control) (CDK3/cyclinE): 103 % of control | Activity (% of control) (CDK2/cyclinA): 87 % of control | Activity (% of control) (PKCζ): 98 % of control | Activity (% of control) (MAPK1): 104 % of control | basal hyperglycemia just prior to the glucose tolerance test ([1]; diabetic mice): significant reduction | glucose disposal following glucose challenge ([1]; diabetic mice): significantly improved | tissue penetrance in vivo ([1]; mice): high | Activity (% of control) (P/CAF (H4 peptide)): 103 % of control
